The text below walks through data of PMC7615677 (Science translational medicine, 2023).

The test system of series [1] is BALB/c 3T3 mouse fibroblasts. The experiment in a line: In vitro 3T3 Neutral Red Uptake (NRU) phototoxicity assay. The class given is cell-based. The settings on record: 3T3 NRU. How it is done: Extinction coefficients were 16131 and 8507 L mol^-1 cm^-1, respectively. An in vitro 3T3 Neutral Red Uptake (NRU) phototoxicity assay was then conducted using a 96-well cytotoxicity-based assay that utilizes normal BALB/c 3T3 mouse fibroblasts to measure the concentration-dependent reduction in neutral red uptake by the cells after exposure to test material either in the presence or absence of UVA light. The assay was performed according to OECD (Test No. 432) test guidance ([42]). Duplicate 96-well monolayers of 3T3 fibroblasts were exposed to serial dilutions of test material. One of the plates was exposed to 5 J/cm2 UVA while the other plate was kept in the dark. To assess viability, the NRU by cells exposed to the test chemical in the presence of UVA exposure was compared to the NRU by cells exposed to the test chemical in the absence of UVA exposure. The Photo-Irritation-Factor (PIF) and Mean Photo Effect (MPE) were calculated.

Series [2] is described as follows: Exploratory 14-day rat toxicology study.
Text: Parameters monitored included morbidity/mortality, clinical signs, body weight, food consumption, hematology and serum clinical chemistry. Main study animals were killed on the day after the last dose and necropsied. Selected organs were weighed. Organ/tissue samples were fixed and preserved at necropsy. Following the macroscopic examination, selected organs/tissues were examined histopathologically and compared to the control group. Satellite animals were sampled for toxicokinetics on days 1 and 14, at various time-points after treatment.
Series [3] has as its system hiPSc-CMs (cardiomyocytes). In words: hiPSc-CM multielectrode (MEA) assay. The series is classed as cell-based, human. The settings on record: 0.37, 1.11, 3.33, 10 and 30 µM. The procedure: The hIPSc-CM assay was conducted to identify DNDI-6174-induced changes in field potential duration (FPD ≈ QT interval), total spike amplitude (TSA ≈ QRS interval) and beat rate. Inducible pluripotent stem cell-derived cardiomyocytes (hiPSc-CMs, iCell2, Cellular Dynamics) were maintained in culture medium (50,000 cells/well) for 7 days. Full media changes were done every 48 h. Following baseline recording, and right after the 1 hour compound treatment time (n=8/concentration, 5 concentrations), 1 min recording of activity was taken daily starting on Day 3 through Day 7 using the Maestro multi-electrode Array System (Axion BioSystems; 48 or 96-well plate). 3μM Quinidine was used as a control for hERG and hNaV1.5 block.

Series [4] in a line: In vitro cytotoxicity assay. The class given is cell-based. The settings on record: human, MRC-5 human fetal lung fibroblasts.
The nature of series [5]: Human PK and dose prediction (IVIVE, allometry, GastroPlus PBPK). The settings on record: plasma; for AUC: read-out: target cumulative total human plasma AUC. From the text:
Human plasma clearance was estimated by in vitro/in vivo extrapolation (IVIVE) of data from liver microsomes and allometry using the available in vivo preclinical data. In both cases, renal excretion of unchanged drug was assumed to be negligible (experimentally confirmed in the rat). […] Therefore, the “rule of exponents” was applied and the unbound clearance data were corrected for brain weight ([13]) as described previously ([14]).
The predicted clearance was input along with the data in Table S16 into a physiologically-based pharmacokinetic (PBPK) model (GastroPlus) to simulate human profiles under different dosing conditions. Given that there was no evidence of renal elimination in rats, it was assumed that clearance occurs solely by hepatic metabolism.
Human clearance was estimated using in vitro/in vivo extrapolation (IVIVE) of data obtained in liver microsomes and cryopreserved hepatocytes incorporating binding to microsomes and hepatocytes, plasma protein binding and the blood to plasma ratio. Scaling factors were as described previously ([12]) and liver blood flows were from Simcyp, assuming an average human body weight of 50 kg was assumed for the patient population ([12]).
The human dose predictions were based on PK and PD data in hamsters (best case scenario) and mice (worst case scenario) and unbound plasma concentrations that led to 95% efficacy. Human profiles were simulated at different doses and dosing regimens (qd or bid) over 10-14 days using GastroPlus (version 9.8, Simulations Plus, Inc., Lancaster, CA). The PBPK model used fasted physiological conditions and a 50 kg 30-year-old American male. The Berezhkovskiy perfusion limited model was used for Kp estimation ([30]). The estimated human plasma clearance was input directly into the model with the assumption that elimination occurred only by hepatic metabolism (consistent with data in rats).

The subject of series [6] is L. donovani promastigote cultures. The experiment in a line: microbe, parasite or virus in culture. The class given is cell-based. Particulars: Leishmania donovani. How it is done:
The clonal L. donovani cell line LdBOB (derived from MHOM/SD/62/1S-CL2D) was grown as promastigotes at 28°C and as axenic amastigotes at 37°C, as described previously ([25]).
To examine the effects of test compounds on growth in 96-well plates, promastigote or axenic amastigote cultures seeded at 5 × 10^4 parasites mL^–1 were incubated in the presence of 2-fold serial dilutions of test compounds for 72 h. Following incubation, 50 μM resazurin was added to each well and fluorescence (excitation of 528 nm and emission of 590 nm) measured after a further 3 h incubation.
Starting at sublethal concentrations, drug concentrations in 5 independent cultures were increased in a stepwise manner, usually by 2-fold. […] Five clones (Res 1–5) were selected for further biological study.

A short description of series [7]: In vitro metabolism, liver microsomes. The series is classed as in vitro ADME, human. How it is done: Compounds were spiked into microsomal matrix prepared in 0.1 M pH 7.4 phosphate buffer containing magnesium chloride (final concentration of 3.3 mM), equilibrated for 5-10 min at 37°C. The reaction was initiated with the addition of freshly prepared solution of NADPH (final 1.3 mM). Control samples without co-factor were included for comparison. Aliquots of the reaction mixtures were taken periodically over 60 min and quenched with acetonitrile containing internal standards (metolazone and diazepam). Quenched samples were maintained on ice for approximately 20-30 min, centrifuged (for 5 min) and the supernatant was analyzed by LC-MS.
In vitro intrinsic clearance (CLint, μL/min/mg or μL/min/10^6 cells) values were calculated from the apparent first order degradation rate constant divided by the microsome concentration or the hepatocyte cell number (10^6 viable cells/mL). In vitro CLint values were then divided by the fraction unbound in the in vitro test system (to give CLint,u) and scaled to in vivo values (mL/min/kg) using published physiological scaling factors ([28]). Blood clearance in each species was then calculated using the well-stirred model of hepatic extraction (equation 2) where Q is the hepatic blood flow and fu,blood is calculated from fu,plasma/B:P: [2] PredictedCLblood=Q x fu,blood x CLint,u/Q+fu,blood x CLint,u
Blood clearance values were converted to plasma clearance by multiplying by the B:P.
For orientation: Microsomes from liver hold many membrane-bound enzymes, among them those of drug oxidation.

Entries after “also recorded” stand apart in the source; their conditions may differ. Where two headings read alike, the source gives them in different places.

For `Cc1[nH]c2nc(N)nc(C)c2c1-c1ccc(C#N)c2c1OCO2` [DNDI-6174], in series [1], the “risk of being phototoxic, in words” value is recorded as “discarded”. In addition, the “tolerability, in words” value in series [2] (200 mg/kg) is “early sacrifice of one female on day 5”; in series [2] (30 and 80 mg/kg oral), “no mortality or morbidity”. The body weight decrease in series [2] (200 mg/kg, males) is on record as above 10%. Besides, the “field potential duration, spike amplitude and beat period, in words” value in series [3] is given as “no notable change in the field potential duration; also recorded: No significant change in the field potential”. The CC50 (usually the concentration giving 50% cytotoxicity) in series [4] is above 64000 nM. The AUC (usually the area under the concentration-time curve, a measure of exposure) in series [5] (male, oral, 27 ug) is 460 µg·h/mL; in series [5] (4 ug), 60 µg·h/mL. In addition, the clearance in series [5] (from in vitro predictions, read-out: expected plasma clearance in humans) is around 1 mL/min/kg. For the same compound, the EC50 in series [6] (DDD01716002 Res 1, read-out: EC50 (representative curve, Fig. 2A)) was 1276 ± 2 nM; in series [6] (WT, read-out: EC50 (representative curve, Fig. 2A)), 22 ± 2 nM; in series [6] (Wild-type promastigotes, read-out: EC50 values), 24 ± 1 nM; in series [6] (read-out: EC50 values, DDD01716002 Res 1 (S207P)), 779 ± 98 nM; in series [6] (read-out: EC50 values, DDD01716002 Res 2 (G31A)) it was 829 ± 63 nM; in series [6] (read-out: EC50 values, DDD01716002 Res 3 (F227I)) it was 84 ± 3 nM. Moreover, the EC50 in series [6] (read-out: EC50 values, DNDI-6174 Res 1 (S35N/S206N)) amounted to 431 ± 16 nM; in series [6] (read-out: EC50 values, DNDI-6174 Res 2 (D231E)) it was 3950 ± 228 nM; in series [6] (read-out: EC50 values, DNDI-6174 Res 3 (S207P)), 1500 ± 91 nM; in series [6] (read-out: EC50 values, DNDI-6174 Res 4 (G31A)), 2700 ± 145 nM; in series [6] (read-out: EC50 values, DNDI-6174 Res 5 (S206N)), 157 ± 5 nM. In series [7] (Human), the “Microsome predicted in vivo CLplasma” value is listed as 0.86 mL/min/kg. Moreover, in series [7] (Human, 2 independent experiments, ± standard error of estimate), the “In vitro Microsome CLint” value was 7.2 ± 1.2 µL/min/mg. Also, in series [7] (human, liver microsomes, pH 7.4, Human, 2 independent experiments, ± standard error of estimate, read-out: In vitro Microsome CLint), the microsomal CLint at 0.5 µM is 6.4 ± 0.75 µL/min/mg.
